# Like-named read-outs stand apart in the source and are kept apart here.
# B1: Cystatin C: a protease inhibitor found in human blood (protein, UniProt P01034 27-146, looked up)
# Cystatin-C: SSPGKPPRLVGGPMDASVEEEGVRRALDFAVGEYNKASNDMYHSRALQVVRARKQIVAGVNYFLDVELGRTTCTKTQPNLDNCPFHDQPHLKRKAFCSFQIYAVPWQGTMTLSKSTCQDA
# Columns and labels:
# Vero E6 cells [1] = assay: Cytotoxicity on Vero E6 cells without viral challenge; assay type: cell-based, African Green Monkey; conditions: three days, inverted microscope
# Method: To determine cytotoxicity, 100 microlitres of serial 10-fold dilutions of each treatment were incubated with 100 microlitres of Vero E6 cells giving a final cell count of 20,000 cells per well in a 96-well plate, without viral challenge.
# SARS-HCoV 2003VA2774 = assay type: cell-based, SARS human coronavirus (SARS-HCoV)
# SARS-HCoV [2] = conditions: literature; cited from earlier work
# Semliki Forest Virus = assay: Protection of Vero E6 cells from Semliki Forest Virus cytopathic effect (crystal violet); assay type: cell-based, Semliki Forest Virus (SFV)
# Method: Vero E6 cells were seeded in 96-well plate, at a density of 10000 cells per well. […] Media was removed from cells, and cells were washed in 1× PBS, then fixed for 10 minutes at room temperature in 4% paraformaldehyde in PBS. Paraformaldehyde was removed and cells were stained with 0.2% crystal violet in 2% ethanol for 10 minutes at room temperature. Stained plates were washed and degree of colouration was quantified at 630 nm using an ELISA reader. Triplicate data is presented in graph format (FIG. 2).
# Vero E6 cells [3] = test system: Vero E6 cells
# [4] = test system: SARS-HCoV, strain Frankfurt-1
# SARS-HCoV [5] = conditions: Lee et al., 2003 and Poutanen et al.; cited from earlier work
# [6] = test system: 'common cold' coronaviruses; conditions: laboratory tests; cited from earlier work
# [7] = 10^4 pfu/well, MOI 0.5, Vero E6 cells
molecule,measurement,setting,value
NC(=O)c1ncn([C@@H]2O[C@H](CO)[C@@H](O)[C@H]2O)n1 [Ribavirin],Cytotoxicity at inhibitory concentration,Vero E6 cells [1],showed cytotoxicity
same,CIA100 (reached: Yes),SARS-HCoV 2003VA2774; [7],Yes
same,Concentration at which complete cytopathic effect,SARS-HCoV 2003VA2774; [7],"5,000 μg/ml"
same,Inhibition of cytopathic effect,"SARS-HCoV 2003VA2774; cytopathic endpoint assay, Vero E6 cells",inhibitory activity at all viral titres
same,Inhibition of cytopathic effect,"SARS-HCoV 2003VA2774; high viral challenge 10^4 pfu/well, MOI 0.5",Complete inhibition
same,CIA100 (concentration inhibiting cytopathic effect in all four set-ups),SARS-HCoV 2003VA2774; virus load 100 pfu/well,500 µg/mL
same,CIA100 (concentration inhibiting cytopathic effect in all four set-ups),"SARS-HCoV 2003VA2774; virus load 1,000 pfu/well","5,000 μg/ml"
same,Efficacy against SARS-HCoV in vitro,SARS-HCoV [2],negative results
Intron A: recombinant alpha IFN product from Schering Plough (IFN-alpha 2b),Loss of protection,Semliki Forest Virus; at 39 IU/ml,equivalent loss of protection
same,Degree of protection,Semliki Forest Virus; at 625 IU/ml,same degree of protection
same,Concentration up to which cells were not fully protected from SARS-HCoV infection,SARS-HCoV 2003VA2774,> 100000 IU/ml
same,Inhibition of cytopathic effect,SARS-HCoV 2003VA2774,did not show significant inhibition
same,Tendency to increase baseline levels in the cytotoxicity assay,Vero E6 cells [3],no similar tendency
same,"IC50 Exp. Type 1, 10 TCID50",[4],>3.125 IU/ml
same,"IC50 Exp. Type 1, 100 TCID50",[4],>3.125 IU/ml
same,"IL50 Exp. Type 2, 10 TCID50",[4],>3.125 IU/ml
same,"IL50 Exp. Type 2, 100 TCID50",[4],>3.125 IU/ml
CCOC(=O)C1=C[C@@H](OC(CC)CC)[C@H](NC(C)=O)[C@@H](N)C1 [Oseltamivir],Therapeutic benefit in SARS-HCoV infection,SARS-HCoV [5],has not shown any therapeutic benefit
B1,Replication of 'common cold' coronaviruses,[6],found to block replication
